Data set [1] relates to breast cancer cell line HCC1806 tumors. In words: Tumor growth suppression, mice inoculated with breast cancer cell line HCC1806. It is filed as in vivo, immunodeficient mice. The note with it: HCC1806, 10 mpk tail vein, 7 times at 2-day intervals; for tumor volume on day 15 (average): 2 days after last administration; for tumor growth suppression compared to the tumor volume of the AQTGTGKT group: day 15. The procedure: (§1) 200 μl of a breast cancer cell line, HCC1806 cells, were inoculated once by subcutaneous injection into the flanks of mice at a concentration of 5×10^6 cells/mouse. After it was confirmed that the volume of a tumor mass formed after the inoculation reached 70 to 130 mm^3, random group separation was performed. A test material was injected to the tail vein 7 times at 2-day intervals at a concentration of 10 mpk, and the start date of administration was set as day 1. The tumor volume was calculated twice a week by measuring the width and length and at the same time, the mouse body weight was measured.

Data set [2] in a line: Stability in human blood (residual amount over time).
In data set [3] the test system is CT26 cells induced to express CAGE gene. In words: Tumor growth suppression, mice inoculated with CT26 cells induced to express CAGE gene. The class given is in vivo. The note with it: CT26 expressing CAGE, 10 mpk tail vein, 7 times at 2-day intervals; for tumor volume on day 14 (average): day after 7th administration; for tumor growth suppression compared to the AQTGTGKT administration group: day 14. As for the experimental part: as §1, with “CT26” for “a breast cancer cell line, HCC1806”, “cells, which were induced to express CAGE gene,” for “cells,”, “1×10^6” for “5×10^6”, “70” for “70 to 130”

The test system of data set [4] is lung cancer cell line H820 tumors. In words: Tumor growth suppression, nude mice inoculated with lung cancer cell line H820. The class given is in vivo. The following applies: H820 in nude mice, 10 mpk, tail vein, 5 times at 3-day intervals and 5 times at 2-day intervals. As for the experimental part:
200 μl of H820 cells were inoculated once by subcutaneous injection into the flanks of mice at a concentration of 5×10^6 cells/mouse at 1:1 with Matrigel. After it was confirmed that the volume of a tumor mass formed after the inoculation reached 70 to 130 mm^3, random group separation was performed. […]

Data set [5] relates to pancreatic cancer cell line CFPAC-1. In words: MTT assay, cell viability suppression in pancreatic cancer cell line CFPAC-1. It is filed as cell-based. The following applies: CFPAC-1, 10 μM, 72 hours. The procedure: (§2) After 72 hours, 10 μl of a CellTiter-96® (Promega Co., USA) reagent was added to each well and allowed to react at 5% CO2 and 37° C. After 3 hours, absorbance was measured at 490 nm using a spectrophotometer (SPECTROstar^Nano, BMG).
For orientation: Tetrazolium assays rely on reduction of a dye to a coloured formazan, in cell work by metabolically active cells.

Data set [6] relates to colorectal cancer cell line HT29. In words: Cell proliferation suppression in colorectal cancer cell line HT29. The following applies: HT29, 50 μM, 72 hours. The class given is cell-based. As for the experimental part:
(§3) After 48 hours, a CellTiter-Glo® (Promega Co., USA) reagent was mixed in the same amount as the cell culture medium and allowed to react in an orbital shaker for 2 minutes. After reaction at room temperature for 10 minutes, the luminescence signal was measured using a luminometer (GloMax®, Promega).
as §2

Data set [7] has as its system blood cancer cell line Jurkat clone E6-1. In words: MTT assay, proliferation suppression in blood cancer cell line Jurkat clone E6-1. It is filed as cell-based. The note with it: Jurkat clone E6-1, 10 μM, 48 hours. As for the experimental part: as §2
As the blood cancer cell line, Jurkat clone E6-1 was used.
Jurkat clone E6-1 was treated with 4-PhPh-[…], Ac-[…], 3-PhPh-[…], 4-MeOPh-[…], 2-PhPh-[…], Ph-[…], and Naphthyl-[…] at a concentration of 10 μM, respectively, and cell proliferation suppression effects were compared after 48 hours.

Data set [8] deals with breast cancer cell line HCC1937. In words: MTT assay, proliferation suppression in breast cancer cell line HCC1937. The following applies: HCC1937, 100 μM, 72 hours. The class given is cell-based. The procedure:
as §2
HCC1937 was used as the breast cancer cell line.
The HCC1937 cell line was treated with Ac-[…], 3-PhPh-[…], 4-MeOPh-[…], 2-PhPh-[…], Ph-[…], and Naphthyl-[…] at a concentration of 100 μM, respectively, and cell proliferation suppression effects were compared after 72 hours.

The test system of data set [9] is lung cancer cell line H1299. In words: CTG assay, cell viability suppression in lung cancer cell line H1299. It is filed as cell-based. The note with it: H1299, 100 μM, 48 hours. The procedure:
as §3

Data set [10] relates to lung cancer cell line H1975. In words: CTG assay, cell viability suppression in lung cancer cell line H1975. It is filed as cell-based. The following applies: H1975, 10 μM, 72 hours. As for the experimental part:
as §3

Data set [11] in a line: in vitro. The note with it: human.
The test system of data set [12] is lung cancer cell line H820. In words: Cell viability suppression in lung cancer (papillary adenocarcinoma) cell line H820. It is filed as cell-based. The note with it: H820, 10 μM, 72 hours. The procedure:
as §3, §2

Data set [13] relates to breast cancer cell line MDA-MB-231. In words: CTG assay, activity of breast cancer cells MDA-MB-231 (amount of ATP). It is filed as cell-based. The note with it: MDA-MB-231, 100 μM, 48 hours. The procedure:
as §3

Data set [14] deals with H1975 lung cancer cells tumors. In words: Tumor growth suppression, nude mice inoculated with H1975 lung cancer cells. The class given is in vivo. The note with it: H1975 in nude mice, 10 mpk for 14 days. The procedure: 150 μl of H1975 cells were inoculated once by subcutaneous injection into the flanks of mice at a concentration of 4×10^6 cells/mouse. After it was confirmed that the volume of a tumor mass formed after the inoculation reached 70 to 130 mm^3, random group separation was performed. A test material was injected to the tail vein 5 times at 3-day intervals and 5 times at 2-day intervals.

Residues, ends and D or L forms follow the SMILES beside them. No end group written: not given here. *: point of attachment. Benzoyl(3-Ph) = O=C(c1cccc(-c2ccccc2)c1)*; Benzoyl(4-Ph) = O=C(c1ccc(-c2ccccc2)cc1)*; Benzoyl(2-Ph) = O=C(c1ccccc1-c1ccccc1)*; Benzoyl(4-OMe) = COc1ccc(C(=O)*)cc1; 2Naphthoyl = O=C(c1ccc2ccccc2c1)*; Bz = O=C(c1ccccc1)* Where only a bound is given, the exact number is not on record here.

The half-life is the time needed for the level to fall by half in the phase considered. The low end stands for rapid decline, the high end for slow decline.

With “AQTGTGKT [alanine-glutamine-threonine-glycine-threonine-glycine-lysine-threonine, reference compound]”, in data set [1], the “tumor volume on day 15 (average)” value stood at 1884.17 mm^3. The half-life at 10 μM in data set [2] was below 1 min. Moreover, the “tumor volume on day 14 (average)” value in [3] is 2573.07 mm^3.
As for `C[C@H](NC(=O)c1ccccc1)C(=O)N[C@@H](CCC(N)=O)C(=O)N[C@H](C(=O)NCC(=O)N[C@H](C(=O)NCC(=O)N[C@@H](CCCCN)C(=O)N[C@H](C(=O)O)[C@@H](C)O)[C@@H](C)O)[C@@H](C)O` (Bz-AQTGTGKT-OH), the “tumor volume on day 15 (average)” value in data set [1] is given as 1133.80 mm^3. Further, the “tumor growth suppression compared to the tumor volume of the AQTGTGKT group” value in data set [1] was around 39.82%. In addition, in data set [2], the half-life at 10 μM fell in the range of 47 to 105 min. In [4], the “tumor growth suppression effect compared to the control (AQTGTGKT)” value turned out to be 20%. In addition, the “cell viability suppression effect compared to the control (AQTGTGKT)” value in data set [5] was determined as 3%; in [9], 18%. Also, the “cell proliferation suppression effect compared to the control (AQTGTGKT)” value in data set [6] was 40%. In addition, the results for the “suppression of proliferation of cells compared to the control (AQTGTGKT)” value in [7] and in data set [8] were around 10.2% and around 13.6%, respectively.
Consider Ac-AQTGTGKT, for which the “cell viability suppression effect compared to the control (AQTGTGKT)” value in [10] is “about 16%”; in data set [9], 4.2%. Also, the “cell proliferation suppression effect compared to the control (AQTGTGKT)” value in data set [6] worked out at 58%. In addition, the “suppression of proliferation of cells compared to the control (AQTGTGKT)” value in data set [7] was around 7.9%; in data set [8], “about 11.1%”.
Regarding `COc1ccc(C(=O)N[C@@H](C)C(=O)N[C@@H](CCC(N)=O)C(=O)N[C@H](C(=O)NCC(=O)N[C@H](C(=O)NCC(=O)N[C@@H](CCCCN)C(=O)N[C@H](C(=O)O)[C@@H](C)O)[C@@H](C)O)[C@@H](C)O)cc1` ({Benzoyl(4-OMe)}-AQTGTGKT-OH), in data set [11], the half-life at 10 μM fell in the range of 47 to 105 min. Moreover, in data set [1], the “tumor volume on day 15 (average)” value stood at 812.69 mm^3. Moreover, the “tumor growth suppression compared to the tumor volume of the AQTGTGKT group” value in [1] is on record as around 56.86%. For the same compound, the “cell viability suppression effect compared to the control (AQTGTGKT)” value in data set [10] is given as 4%; in [5], 6%; in [12], 10%; in [9], 12%. The “cell proliferation suppression effect compared to the control (AQTGTGKT)” value in data set [6] came out at 48%. For the same compound, the figures for the “suppression of proliferation of cells compared to the control (AQTGTGKT)” value in data set [7] and in data set [8] were around 4% and around 14.3%, respectively.
The compound `C[C@H](NC(=O)c1ccccc1-c1ccccc1)C(=O)N[C@@H](CCC(N)=O)C(=O)N[C@H](C(=O)NCC(=O)N[C@H](C(=O)NCC(=O)N[C@@H](CCCCN)C(=O)N[C@H](C(=O)O)[C@@H](C)O)[C@@H](C)O)[C@@H](C)O` ({Benzoyl(2-Ph)}-AQTGTGKT-OH) came in with a half-life at 10 μM in data set [11] of 47 to 105 min. Moreover, the “tumor growth suppression effect compared to the control (AQTGTGKT)” value in [4] is 27%. Further, the “cell viability suppression effect compared to the control (AQTGTGKT)” value in data set [10] is on record as 3%; in data set [9] it was 20%. For the same compound, the “cell proliferation suppression effect compared to the control (AQTGTGKT)” value in [6] turned out to be 7%. The entries for the “suppression of proliferation of cells compared to the control (AQTGTGKT)” value in data set [7] and in [8] were around 6.7% and around 15.9%, respectively.
`C[C@H](NC(=O)c1ccc2ccccc2c1)C(=O)N[C@@H](CCC(N)=O)C(=O)N[C@H](C(=O)NCC(=O)N[C@H](C(=O)NCC(=O)N[C@@H](CCCCN)C(=O)N[C@H](C(=O)O)[C@@H](C)O)[C@@H](C)O)[C@@H](C)O` (2Naphthoyl-AQTGTGKT-OH): the half-life at 10 μM in [11] lay within 47 to 105 min. Besides, the “tumor growth suppression compared to the AQTGTGKT administration group” value in [3] was “about 62.04%”. Besides, the “tumor volume on day 14 (average)” value in data set [3] is on record as 880.35 mm^3. Also, in data set [4], the “tumor growth suppression effect compared to the control (AQTGTGKT)” value is listed as 26%. In addition, the “cell viability suppression effect compared to the control (AQTGTGKT)” value in data set [5] is on record as 3%; in data set [9], 14%. In [6], the “cell proliferation suppression effect compared to the control (AQTGTGKT)” value was found to be 58%. In addition, the “suppression of proliferation of cells compared to the control (AQTGTGKT)” value in data set [7] is around 10.4%; in data set [8], around 9.5%.
As for `C[C@H](NC(=O)c1ccc(-c2ccccc2)cc1)C(=O)N[C@@H](CCC(N)=O)C(=O)N[C@H](C(=O)NCC(=O)N[C@H](C(=O)NCC(=O)N[C@@H](CCCCN)C(=O)N[C@H](C(=O)O)[C@@H](C)O)[C@@H](C)O)[C@@H](C)O` ({Benzoyl(4-Ph)}-AQTGTGKT-OH), the half-life at 10 μM in data set [11] is 47 to 105 min. In addition, the entries for the “cell viability suppression effect compared to the control (AQTGTGKT)” value in [5] and in data set [9] were “about 12%” and “about 10%”, respectively. In addition, in [6], the “cell proliferation suppression effect compared to the control (AQTGTGKT)” value is listed as “about 8%”. For the same compound, in data set [7], the “suppression of proliferation of cells compared to the control (AQTGTGKT)” value is “about 4.8%”. Moreover, the “reduction of activity of cells compared to the control (AQTGTGKT)” value in [13] is on record as “about 30%”.
`C[C@H](NC(=O)c1cccc(-c2ccccc2)c1)C(=O)N[C@@H](CCC(N)=O)C(=O)N[C@H](C(=O)NCC(=O)N[C@H](C(=O)NCC(=O)N[C@@H](CCCCN)C(=O)N[C@H](C(=O)O)[C@@H](C)O)[C@@H](C)O)[C@@H](C)O` ({Benzoyl(3-Ph)}-AQTGTGKT-OH) returned a half-life at 10 μM in data set [11] of 47 to 105 min. Besides, in [1], the “tumor volume on day 15 (average)” value amounted to 944.70 mm^3. For the same compound, the “tumor growth suppression compared to the tumor volume of the AQTGTGKT group” value in data set [1] is recorded as “about 49.86%”. Also, the “tumor growth suppression compared to the AQTGTGKT administration group” value in [3] was “about 65.79%”. The “tumor volume on day 14 (average)” value in data set [3] was 880.35 mm^3. In addition, in data set [14], the “tumor growth reduction compared to the control (AQTGTGKT)” value is given as “about 16.5%”. Moreover, the “tumor growth suppression effect compared to the control (AQTGTGKT)” value in data set [4] is reported as “about 16.5%”. Also, the “cell viability suppression effect compared to the control (AQTGTGKT)” value in data set [10] was 33%; in data set [5], 2%; in data set [12], “about 12%”; in [9] it was 15%. Besides, the “cell proliferation suppression effect compared to the control (AQTGTGKT)” value in data set [6] was 59%. Moreover, the “suppression of proliferation of cells compared to the control (AQTGTGKT)” value is recorded as around 6.4% in data set [7] and around 17.1% in data set [8].
